Test results from patent US5985874A, “Substituted morpholine derivative and its use as a therapeutic agent” (Merck Sharp & Dohme Ltd., priority 1998, dated 1999).

Experiments:
cisplatin-induced emesis = experiment: ferret model of cisplatin-induced emesis (Tattersall et al, Eur. J. Pharmacol. 1993); format: in vivo
NK1 receptor = NK1 receptor (Homo sapiens, UniProt P25103); experiment: NK1 receptor test by the methods of WO 93/01165 (pages 36 to 39); format: binding; conditions: test methods of WO 93/01165, pages 36 to 39
Sequence of NK1 receptor (P25103 whole entry): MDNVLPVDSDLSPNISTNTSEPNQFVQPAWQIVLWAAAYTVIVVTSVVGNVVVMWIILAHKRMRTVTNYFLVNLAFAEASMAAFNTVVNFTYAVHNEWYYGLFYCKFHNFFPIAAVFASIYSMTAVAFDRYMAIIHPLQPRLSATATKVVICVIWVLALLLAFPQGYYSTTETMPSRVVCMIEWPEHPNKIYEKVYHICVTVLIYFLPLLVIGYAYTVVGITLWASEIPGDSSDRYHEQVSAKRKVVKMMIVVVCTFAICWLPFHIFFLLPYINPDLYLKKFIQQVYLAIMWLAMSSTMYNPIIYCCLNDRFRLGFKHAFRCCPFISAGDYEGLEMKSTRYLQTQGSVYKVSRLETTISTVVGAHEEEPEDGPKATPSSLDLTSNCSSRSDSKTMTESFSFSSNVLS
Experimental: The compound of this invention was tested by the methods set out at pages 36 to 39 of International Patent Specification No. WO 93/01165.

For `Cn1cnc(CN2CCO[C@H](O[C@H](CO)c3cc(C(F)(F)F)cc(C(F)(F)F)c3)[C@@H]2c2ccc(F)cc2)n1` [Example 1, 2(R)-(1-(3,5-Bis(trifluoromethyl)phenyl)-2(S)-hydroxyethoxy)-3(S)-(4-fluorophenyl)-4-((1-methyl-1,2,4-triazol-3-yl)methylene)morpholine], the “retching and vomiting induced by cisplatin” value (cisplatin-induced emesis) was “attenuate the retching and vomiting induced by cisplatin” and the IC50 (NK1 receptor) was under 1 nM.
